# Data as given in article PMC7066533 (Frontiers in Pharmacology, 2020).
# Where “and” joins values, the source holds several entries; their conditions need not be identical. Equal entries are not always repeated. Where two headings read alike, the source gives them in different places. Square brackets hold non-standard residues; d marks the D form. Peptide text beside a SMILES is read from it. βAla = NCCC(=O)O
# How the values were obtained:
# U87-MG cells = assay: Cell proliferation assay ([3H]-thymidine incorporation) in U87-MG cells; type: cell-based, human
# Procedure: A cell proliferation assay was carried out as previously reported ([Bedini et al., 2017]). Briefly, U87-MG cells or normal human astrocytes were plated on a 12-well plate and treated as described in the results section or maintained in cell culture medium containing 10% fetal bovine serum. Five hours before the end of the treatments, [methyl-^3H] thymidine (Perkin Elmer) (50 nM final concentration) was added to serum-free cell culture medium, and the plate was incubated at 37°C. Thereafter, the medium was removed, and the cells were washed twice with PBS. Then, 200 μl of PBS was added to each well, and the cells were scraped off and centrifuged at 13,000 g for 3 min at 4°C. The supernatants were then discarded, pellets were re-suspended in 500 μl of cold trichloroacetic acid (10% w/v), incubated on ice for 20 min and centrifuged at 13,000 g for 3 min at 4°C. The supernatant was then discarded, and the pellet was suspended in 500 μl of cold methanol and centrifuged at 3 min for 13,000 g at 4°C. Thereafter, the pellet was suspended in 200 μl of 1 N NaOH and heated at 55°C for 10 min. Samples were then neutralized with 200 μl of 1 N HCl and 350 μl of the labelled DNA incubated in counting vials with 4 ml of Filter Count scintillation liquid (Perkin Elmer Italia). Vials were vortexed and incubated overnight at room temperature, and the radioactivity was determined by liquid scintillation spectrometry.
# ERK1/2 phosphorylation = assay: ERK1/2 phosphorylation, western blot; type: cell-based, human
# Procedure: HEK-293 cells stably expressing KOPr, U87-MG astrocytoma cells, or normal human astrocytes endogenously expressing KOPr were plated into 6-well plates until 60–70% confluence was reached. Then, the cells were serum-starved for 16–18 h and subsequently exposed to vehicle, LOR17 (1 μM; 0–120 min) or U50,488 (1 μM; 0–120 min). Alternatively, […] and U87-MG cells were exposed to norBNI (10 μM; 30 min prior to LOR17) and then treated with 1 μM LOR17, or they were exposed to increasing concentration of LOR17 (1–100 μM; 30 min). Proteins were extracted as previously reported ([Kuhar et al., 2015]), quantified by means of BCA assay (Pierce) and SDS-page gel electrophoresis performed as previously described for ERK1/2 ([Baiula et al., 2016]) and p38MAPK ([Schattauer et al., 2012]).
# Membranes were then incubated with anti-phospho-ERK 1/2 (1:1,000) (Cell Signaling Technology, Danvers, MA, USA), anti-total ERK1/2 antibodies (1:1,000) (Cell Signaling Technology), anti-phospho-p38MAPK antibodies (1:1,000) (Cell Signaling Technology, Danvers, MA, USA), or anti-actin antibodies (1:2,500) (Santa Cruz Biotechnology, Dallas, TX, USA) at 4°C in the presence of BSA (5 g/100 ml) in Tris buffered saline containing Tween-20 (0.1 g/100 ml). […]
# CD-1 adult male mice [1] = assay: Warm-water tail-withdrawal test; type: in vivo, mouse
# Procedure: The warm-water tail-withdrawal test was performed as previously described ([Bedini et al., 2010]). Briefly, a mouse’s tail was immersed in hot water (52 ± 0.5°C), and the latency to tail withdrawal was measured as an indicator of nociception. Prior to being treated, each mouse was tested, and the latency to tail withdrawal was recorded (control latency, CL). Animals not withdrawing their tails within 5 s were not used (6% of mice). Responding animals were then injected i.p. with either vehicle or one of the compounds (LOR17 or U50,488; 0–20 mg/kg). The KOR antagonist norBNI (10 mg/kg; i.p.) was injected 30 min or 24 h prior to administering LOR17.
# Latency to withdrawal was measured at 5, 15, 30, 45, 60, and 90 min after drug administration and defined as the test latency (TL), with a cutoff time of 10 s.
# hKOPr = type: cell-based, human
# KOPr [2] = target: T1, KOPr (Homo sapiens, UniProt P41145); type: cell-based
# T1 sequence (P41145 whole entry): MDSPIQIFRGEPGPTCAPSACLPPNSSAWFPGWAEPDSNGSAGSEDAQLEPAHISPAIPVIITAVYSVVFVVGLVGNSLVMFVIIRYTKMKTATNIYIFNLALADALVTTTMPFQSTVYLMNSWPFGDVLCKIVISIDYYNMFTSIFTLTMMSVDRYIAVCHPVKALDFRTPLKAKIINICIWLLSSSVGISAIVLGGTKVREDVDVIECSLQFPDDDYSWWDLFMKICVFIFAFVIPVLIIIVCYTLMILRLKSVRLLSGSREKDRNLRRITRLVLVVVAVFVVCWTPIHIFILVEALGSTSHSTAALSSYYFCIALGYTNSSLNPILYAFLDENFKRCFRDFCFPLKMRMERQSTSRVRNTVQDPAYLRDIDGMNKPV
# CD-1 adult male mice [3] = details: mouse, in vivo
# CD-1 adult male mice [4] = details: mouse, in vivo; remark: listed apart in the source
# CD-1 adult male mice [5] = details: mouse, in vivo; remark: listed apart in the source
# [6] = target: KOPr in U87-MG human astrocytoma cells (Homo sapiens, UniProt P41145); assay: cell-based; details: U-87 MG, read-out: Emax U87-MG
# KOPr in U87-MG human astrocytoma cells, sequence (P41145 whole entry): as above
# CD-1 adult male mice [7] = assay: Hole-board test; type: in vivo, mouse; details: 10 mg/kg s.c.
# Procedure: The hole-board test consisted of a […] plane with 16 flush-mounted cylindrical holes (3 cm diameter) distributed four by four in an equidistant, grid-like manner. Mice were placed on the center of the board one by one and allowed to move about freely for a period of 5 min. Two electric eyes, crossing the plane from midpoint to midpoint of the opposite sides, thus dividing the plane into four equal quadrants, automatically signaled the movement of the animal (counts in 5 min) on the surface of the plane (spontaneous motility). Miniature photoelectric cells in each of the 16 holes recorded (counts in 5 min) the exploration of the holes (exploratory activity) by the mice ([Guerrini et al., 2006]).
# hMOPr = target: T2, hMOPr (Homo sapiens, UniProt P35372); assay: Displacement binding assay with [3H]DAMGO on HEK-293/hMOPr membranes
# T2 construct: expressed in transfected cells
# T2 sequence (P35372 whole entry): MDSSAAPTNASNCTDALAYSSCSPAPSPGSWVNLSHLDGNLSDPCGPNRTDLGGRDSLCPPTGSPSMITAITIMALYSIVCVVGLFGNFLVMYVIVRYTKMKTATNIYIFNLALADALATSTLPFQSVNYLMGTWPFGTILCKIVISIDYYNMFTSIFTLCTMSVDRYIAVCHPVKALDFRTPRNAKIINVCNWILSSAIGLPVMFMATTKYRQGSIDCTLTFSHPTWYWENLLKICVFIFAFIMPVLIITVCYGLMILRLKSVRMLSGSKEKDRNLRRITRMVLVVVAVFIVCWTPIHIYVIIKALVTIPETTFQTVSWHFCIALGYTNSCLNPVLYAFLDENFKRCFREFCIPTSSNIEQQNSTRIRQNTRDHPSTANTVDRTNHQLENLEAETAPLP
# hDOPr = target: T3, hDOPr (Homo sapiens, UniProt P41143); assay: Displacement binding assay with [3H]diprenorphine on HEK-293/hDOPr membranes
# T3 construct: expressed in transfected cells
# T3 sequence (P41143 whole entry): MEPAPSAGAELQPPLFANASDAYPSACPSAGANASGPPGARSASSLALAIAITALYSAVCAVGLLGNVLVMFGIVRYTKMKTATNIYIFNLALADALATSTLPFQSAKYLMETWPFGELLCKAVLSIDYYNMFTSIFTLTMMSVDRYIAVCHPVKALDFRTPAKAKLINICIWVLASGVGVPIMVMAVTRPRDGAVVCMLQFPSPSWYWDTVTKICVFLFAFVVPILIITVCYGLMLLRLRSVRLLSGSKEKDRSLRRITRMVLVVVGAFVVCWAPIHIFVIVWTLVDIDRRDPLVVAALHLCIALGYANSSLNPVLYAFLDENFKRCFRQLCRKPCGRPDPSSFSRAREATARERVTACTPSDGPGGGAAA
# p38MAPK phosphorylation = type: cell-based, human
# KOPr [8] = target: T1, KOPr; assay: cell-based
# [9] = target: KOPr in normal human astrocytes (Homo sapiens, UniProt P41145); assay: cell-based; details: read-out: Emax NHA
# KOPr in normal human astrocytes, sequence (P41145 whole entry): as the sequence (P41145 whole entry) above
# normal human astrocytes = type: cell-based; details: SB203580 2 µM, 30 min prior to U50,488
# [10] = norBNI 10 µM 15 min prior, SB203580 2 µM 30 min prior, LOR17 10 μM co-administered
compound,measurement,setting,value
"Oc1ccc2c3c1O[C@H]1c4[nH]c5c(c4C[C@@]4(O)[C@@H](C2)N(CC2CC2)CC[C@]314)C[C@@]1(O)[C@H]2Cc3ccc(O)c4c3[C@@]1(CCN2CC1CC1)[C@H]5O4 [norBNI, norbinaltorphimine, reference compound]","Effect on U50,488 (1 µM)-mediated increase of U87-MG cell proliferation",U87-MG cells; [10],prevented
same,LOR17 (1 μM)-mediated increase in ERK1/2 phosphorylation after antagonist,"ERK1/2 phosphorylation; norBNI 10 μM, 30 min prior to LOR17, HEK-293/hKOPr and U87-MG cells",fully reverted
same,Effect on LOR17-mediated antinociception in the tail-withdrawal test,CD-1 adult male mice [1]; norBNI 10 mg/kg i.p.,prevented
"O=C1CNC(=O)[C@H](Cc2ccccc2)NC(=O)[C@@H](Cc2c[nH]c3ccccc23)NC(=O)CCN1 [LOR17, c[Phe-Gly-(β-Ala)-D-Trp]] (cyclo(FG[βAla][dW]))",Bias Factor,hKOPr,853
same,ΔΔlog(τ/KA),hKOPr,"2,931"
same,log(τ/KA) β-arrestin 2,KOPr [2],"3,432"
same,Δlog(τ/KA) β-arrestin 2,KOPr [2],"-2,67"
same,β-arrestin 2 recruitment at KOPr,KOPr [2],very week β-arrestin 2 recruitment at KOPr and only at concentrations higher than 1 μM
same,"Effect on U50,488 (1 µM)-mediated increase of U87-MG cell proliferation",U87-MG cells,prevented the increase in U87-MG cell proliferation
same,U87-MG cell proliferation rate vs vehicle,U87-MG cells,did not alter the U87-MG cell proliferation rate
same,Mobility time,CD-1 adult male mice [3],91.6 ± 12.3 s
same,"Effect on oxaliplatin-induced thermal hypersensitivity, single s.c. administration",CD-1 adult male mice [4],fully reversed the oxaliplatin-dependent hypersensitivity
same,Efficacy in cold plate test after repeated treatment,CD-1 adult male mice [4],maintains its efficacy
same,Licking latency (maximal effect),CD-1 adult male mice [4],18.2 ± 1.4 s and 19.6 ± 1.7 s
same,Dose from which licking latency increase takes effect,CD-1 adult male mice [4]; sc,1 mg/kg
same,"ED50, oxaliplatin-induced thermal hypersensitivity (cold plate test)",CD-1 adult male mice [4]; sc,6.63 ± 0.23 mg/kg
same,Number of writhes vs vehicle,CD-1 adult male mice [5],significantly reduced the number of writhes
same,"ED50, writhing test",CD-1 adult male mice [5]; ip,5.74 ± 0.46 mg/kg
same,Emax,[6],87 ± 4%
same,Board (locomotor activity),CD-1 adult male mice [7]; 0 min,89.2 ± 7.3 counts in 5 min
same,Hole (exploratory activity),CD-1 adult male mice [7]; 0 min,37.2 ± 3.9 counts in 5 min
same,Board (locomotor activity),CD-1 adult male mice [7]; 30 min,97.2 ± 16.9 counts in 5 min
same,Hole (exploratory activity),CD-1 adult male mice [7]; 30 min,39.0 ± 4.6 counts in 5 min
same,Ki,hMOPr,> 100 µM
same,Ki,hDOPr,> 100 µM
same,ERK1/2 phosphorylation levels vs vehicle,ERK1/2 phosphorylation,significant increase in ERK1/2 phosphorylation only after 15 min of exposure
same,"Effect on U50,488-induced p38MAPK phosphorylation",p38MAPK phosphorylation,"counteracted U50,488-induced p38MAPK phosphorylation in a concentration-dependent fashion"
same,p38MAPK phosphorylation vs vehicle,p38MAPK phosphorylation,does not influence p38MAPK phosphorylation
same,log(τ/KA) G Protein,KOPr [8],"8,856"
same,Δlog(τ/KA) G Protein,KOPr [8],"0,261"
same,Emax,"KOPr [8]; HEK293, read-out: Emax HEK-293/KOR",85 ± 5%
same,Emax,[9],88 ± 6%
same,Antinociception in the tail-withdrawal test,"CD-1 adult male mice [1]; mouse, in vivo",antinociceptive response in a dose- and time-dependent fashion
same,"ED50, warm-water tail-withdrawal test","CD-1 adult male mice [1]; mouse, in vivo, ip",10.07 ± 0.36 mg/kg
"C[S+]([O-])c1ccc(-c2nc(-c3ccncc3)c(-c3ccc(F)cc3)[nH]2)cc1 (stereo not drawn) [SB203580, reference compound]","Effect on U50,488 (1 µM)-mediated increase of U87-MG cell proliferation",U87-MG cells; [10],prevented
same,"Effect on U50,488 (1 µM)-enhanced normal human astrocyte cell proliferation",normal human astrocytes,abolished
